Experimental findings from PubChem BioAssay (NCI) are described below.

Test systems include M14 melanoma; OVCAR-4 ovarian; ACHN renal; SN12C renal; A498 renal; SF-268 CNS; UO-31 renal; SK-OV-3 ovarian; HT29 colon; OVCAR-3 ovarian.
Assay in all cases: NCI tumour cell line growth inhibition, 48 h

Each structure is given as a SMILES string.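 A five-concentration, 48-hour dose response in 96-well plates underlies each endpoint, interpolated linearly between surrounding concentrations. GI50 = concentration required for 50% inhibition of growth. TGI: total growth inhibition.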 Where a SMILES comes first, the peptide text is derived from it. [ ]: non-standard residue; d: D form. Ac5c = NC1(C(=O)O)CCCC1

With `COc1cc(OC)c(/C=C/S(=O)(=O)Cc2cnc(OC)c(N)c2)c(OC)c1`, the GI50 with M14 melanoma is less than 0.0173 µM; in the test with OVCAR-4 ovarian it was less than 0.0456 µM; in the test on ACHN renal it was less than 0.0233 µM; in the test with SN12C renal it was less than 0.0232 µM; in the test on A498 renal, less than 0.01 µM; in the test on SF-268 CNS, less than 0.0328 µM. Moreover, the GI50 in the test with UO-31 renal was less than 0.0251 µM; with SK-OV-3 ovarian, less than 0.0211 µM; with HT29 colon it was less than 0.0185 µM; with OVCAR-3 ovarian, 0.0264 µM. The TGI in the test on M14 melanoma, in the test with OVCAR-4 ovarian, with ACHN renal, in the test with SN12C renal, with A498 renal and in the test with SF-268 CNS was more than 100 µM throughout. The TGI in the test on UO-31 renal, in the test on SK-OV-3 ovarian and in the test with OVCAR-3 ovarian was more than 100 µM throughout.

For `CCCCCCCCC[C@@H]1CC(=O)OCC2OC(O[C@H](CCCCCCCCC)CC(=O)OCC3OC(O[C@H](CCCCCCCCC)CC(=O)OCC4OC(O1)C(O)C(O)C4O)C(O)C(O)C3O)C(O)C(O)C2O` (some centres undefined), the TGI in the test on M14 melanoma came to 10.2 µM; in the test on OVCAR-4 ovarian, 32.3 µM; with ACHN renal it was 26.1 µM; in the test on SN12C renal, 28 µM; with A498 renal, 27.9 µM; in the test with SF-268 CNS it was 7.74 µM. For the same molecule, the TGI is 24.6 µM in the test with UO-31 renal, 26.5 µM in the test with SK-OV-3 ovarian, 24.3 µM in the test with HT29 colon and 32.1 µM with OVCAR-3 ovarian.

Take `CCCCc1c2c(nc3c1CCC/C3=C\c1ccccc1)C(=O)CCC2`: the TGI came to 41.9 µM with M14 melanoma; 67.9 µM in the test on OVCAR-4 ovarian; 95.2 µM in the test on ACHN renal; 47.4 µM with SN12C renal; 61.4 µM in the test with A498 renal; 44.3 µM in the test with SF-268 CNS. The TGI in the test on UO-31 renal was found to be 61.8 µM; with SK-OV-3 ovarian it was 67.2 µM; with HT29 colon it was 31.4 µM; in the test with OVCAR-3 ovarian, 33.4 µM.

In the case of `Cc1[nH]c2ccccc2c1C1Cc2ccccc2N1C(=O)/C=C\C(=O)O` (centres undefined), the TGI is more than 100 µM in the test with M14 melanoma; more than 100 µM in the test with OVCAR-4 ovarian; more than 100 µM with ACHN renal; more than 100 µM in the test on SN12C renal; more than 100 µM in the test on A498 renal; 68.4 µM in the test on SF-268 CNS. The TGI in the test with UO-31 renal, with SK-OV-3 ovarian, in the test with HT29 colon and in the test on OVCAR-3 ovarian was more than 100 µM each time.

For the molecule `NC1(C(=O)NC2(C(=O)O)CCCC2)CCCC1` (H-[Ac5c]-[Ac5c]-OH), the TGI with M14 melanoma, in the test with OVCAR-4 ovarian, in the test on ACHN renal, with SN12C renal, in the test on A498 renal and in the test on SF-268 CNS was more than 100 µM each time. The TGI in the test on UO-31 renal, in the test with SK-OV-3 ovarian, in the test with HT29 colon and in the test on OVCAR-3 ovarian was more than 100 µM in each case.

As to `O=S(=O)(N/N=C/c1ccc(/C=N/NS(=O)(=O)c2ccccc2)cc1)c1ccccc1`, the TGI with M14 melanoma, in the test on OVCAR-4 ovarian, with ACHN renal, in the test on SN12C renal, in the test on A498 renal and with SF-268 CNS was more than 100 µM each time. For the same molecule, the TGI in the test with UO-31 renal, with SK-OV-3 ovarian, in the test on HT29 colon and in the test on OVCAR-3 ovarian was more than 100 µM in each case.
